Experimental data: PubChem BioAssay (NCI)
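Tested at 5 concentrations; 48 h exposure; 96-well plates; endpoints linearly interpolated, else capped at highest concentration. GI50 = concentration required for 50% inhibition of growth. TGI marks complete inhibition of growth.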

Legend:
Assay in all cases: growth of human tumour cells (NCI), 48 h
[1] = test system: MCF7 breast
[2] = test system: SK-OV-3 ovarian
[3] = test system: HCT-116 colon
[4] = test system: NCI/ADR-RES ovarian
[5] = test system: K-562 leukemia
[6] = test system: ACHN renal
[7] = test system: SK-MEL-2 melanoma
[8] = test system: HT29 colon
[9] = test system: UACC-257 melanoma
[10] = test system: SK-MEL-28 melanoma

Row | Structure (SMILES) | TGI [1] [µM] | TGI [2] [µM] | TGI [3] [µM] | TGI [4] [µM] | TGI [5] [µM] | TGI [6] [µM] | TGI [7] [µM] | TGI [8] [µM] | TGI [9] [µM] | TGI [10] [µM] | GI50 [1] [µM] | GI50 [2] [µM] | GI50 [3] [µM] | GI50 [4] [µM] | GI50 [5] [µM] | GI50 [6] [µM] | GI50 [7] [µM] | GI50 [8] [µM] | GI50 [9] [µM] | GI50 [10] [µM]
1 | O=C(CNc1nccs1)Nn1cnc2ccc(S(=O)(=O)Nc3nccs3)cc2c1=O | > 100 | > 100 | > 100 | > 100 | > 100 | > 100 | > 100 | > 100 | > 100 | > 100 | – | – | – | – | – | – | – | – | – | –
2 | Nc1nc(Nc2ccc(Cl)cc2)sc1C(=O)c1c[nH]c2ccccc12 | 31 | 46.4 | 23.1 | 33.1 | > 100 | 36.2 | 28.4 | 20 | 19.7 | 39.8 | – | – | – | – | – | – | – | – | – | –
3 | N#CCCN(CCC#N)c1ccc(/C=C2\SC(=S)NC2=O)cc1 | > 100 | > 100 | > 100 | > 100 | > 100 | > 100 | > 100 | > 100 | > 100 | > 100 | – | – | – | – | – | – | – | – | – | –
4 | O=C(N/N=C\c1cccs1)c1ccncc1 | > 100 | > 100 | > 100 | > 100 | > 100 | > 100 | > 100 | > 100 | > 100 | > 100 | – | – | – | – | – | – | – | – | – | –
5 | Cc1ccc(/C(O)=C/c2nc3cccnc3[nH]c2=O)cc1 | > 100 | > 100 | > 100 | > 100 | > 100 | > 100 | > 100 | > 100 | > 100 | > 100 | – | – | – | – | – | – | – | – | – | –
6 | C=CC(C)(C)C1(CC(OC)OC)C(=O)N(C)c2ccccc21 (stereo not given) | > 25 | > 25 | > 25 | > 25 | > 25 | > 25 | > 25 | > 25 | > 25 | > 25 | – | – | – | – | – | – | – | – | – | –
7 | Cc1nc(N)sc1C(=O)Nc1ncn[nH]1 | > 100 | > 100 | > 100 | > 100 | > 100 | > 100 | > 100 | > 100 | > 100 | > 100 | – | – | – | – | – | – | – | – | – | –
8 | C/C(=N/NC(=S)N(C)C)c1ccccc1O | > 40.4 | > 100 | 34.8 | 13.8 | > 100 | > 76.5 | > 100 | > 100 | 63.4 | > 100 | – | – | – | – | – | – | – | – | – | –
9 | N#C/C(=C/n1c(=S)[nH]c2ccccc21)C(N)=O | > 100 | > 100 | > 100 | > 100 | > 100 | > 100 | > 100 | > 100 | > 100 | > 100 | – | – | – | – | – | – | – | – | – | –
10 | CC(C)NCC(O)c1ccc(O)c2ncccc12 (stereo not given) | > 100 | > 100 | 87.7 | 92.5 | > 100 | > 100 | > 100 | > 100 | > 100 | > 100 | – | – | – | – | – | – | – | – | – | –
11 | N#C/C=c1/c2ccccc2n2nc3ccccc3c12 | > 100 | 22.9 | 12.1 | > 100 | > 100 | 27.9 | > 100 | > 100 | > 100 | > 100 | – | – | – | – | – | – | – | – | – | –
12 | COC(=O)[C@@H]1[C@H](O)CCC2=C(CC(=O)c3ccoc3)[C@H](C)CC[C@]21C | > 50 | > 50 | > 50 | > 50 | > 50 | > 50 | > 50 | > 50 | > 50 | > 50 | – | – | – | – | – | – | – | – | – | –
13 | CCOC(=O)C1(C#N)C2(C#N)C(N)=NC(ON=C(C)C)(ON=C(C)C)C12C#N (stereo not given) | > 100 | > 100 | > 100 | > 100 | > 100 | > 100 | > 100 | > 100 | > 100 | > 100 | – | – | – | – | – | – | – | – | – | –
14 | C/C(=N/NC(=S)Nc1cccc(Cl)c1)c1ccccn1 | 5.17 | 10.4 | 12.2 | 4.58 | 2.85 | 8.13 | 8.92 | 13.9 | 2.41 | 16 | – | – | – | – | – | – | – | – | – | –
15 | c1ccc(C(c2cccc3c2ccc2ccccc23)C(c2ccccc2)c2cccc3c2ccc2ccccc23)cc1 (stereo not given) | > 100 | > 100 | > 100 | > 100 | > 100 | > 100 | > 100 | > 100 | > 100 | > 100 | – | – | – | – | – | – | – | – | – | –
16 | COc1cc(OCc2nc3cc(C(F)(F)F)ccc3nc2-c2ccccc2)cc(OC)c1OC | > 100 | > 100 | > 100 | > 100 | > 100 | > 100 | > 100 | > 100 | > 100 | > 100 | – | – | – | – | – | – | – | – | – | –
17 | COC1=CC(=O)c2c(cc(COP(N)(=O)N(CCCl)CCCl)n2C)C1=O (stereo not given) | 9.55 | 5.9 | 0.707 | 19.8 | 36.9 | 1.18 | 4.12 | 4.33 | 14.2 | 8.83 | – | – | – | – | – | – | – | – | – | –
18 | N/C(=N\NC(=O)c1nc2ccccc2s1)c1ccccn1 | > 63.7 | 29.5 | 19.6 | 15.5 | > 77.8 | 16.5 | > 100 | 50.7 | > 79.8 | > 100 | – | – | – | – | – | – | – | – | – | –
19 | C=CCNc1nc(O)c(/C=C2\C=Nc3ncccc32)s1 | > 100 | 8.66 | > 100 | > 100 | > 100 | > 100 | 5.09 | > 100 | 21.2 | 9.14 | 2.2 | 2.21 | 1.52 | 5.05 | 4.26 | 2.21 | 2.23 | 3.05 | 9.12 | 2.52
20 | COc1cc(NS(C)(=O)=O)ccc1NCc1cnc2ccc3[nH]cccc3c12 | 59 | 48 | > 70 | 62.1 | 41 | 69.2 | 39.4 | 73.9 | 32 | 60.9 | – | – | – | – | – | – | – | – | – | –
21 | CC(C)(C)c1ccc(O)c(C(c2ccc([N+](=O)[O-])cc2)c2cc(C(C)(C)C)ccc2O)c1 | 3.83 | 4.15 | 5.06 | 7.72 | 7.35 | 3.3 | 3.36 | 4.47 | 3.41 | 3.72 | – | – | – | – | – | – | – | – | – | –
22 | C[C@@H](NC(=O)[C@@H]1C[C@]1(C)CO)c1cccc2ccccc12 | > 100 | > 100 | > 100 | > 100 | > 100 | > 100 | > 100 | > 100 | > 100 | > 100 | – | – | – | – | – | – | – | – | – | –
23 | Clc1ccc2nc3n[nH]c(Cl)c3nc2c1 | > 100 | > 100 | > 100 | > 100 | > 100 | > 100 | > 100 | > 100 | > 100 | > 100 | – | – | – | – | – | – | – | – | – | –
24 | CC(=O)OC12CC(C(F)(F)F)(C(F)(F)F)OC1(OC(C)=O)CC(C(F)(F)F)(C(F)(F)F)O2 (stereo not given) | 3.73 | 79.8 | 29.7 | > 100 | > 100 | 2.38 | > 100 | > 100 | > 100 | > 100 | – | – | – | – | – | – | – | – | – | –
